Values of other authors in patent US9012171B2, “Systems and methods for measuring translation activity in viable cells” (Anima Cell Metrology, Inc., priority 2007, dated 2015).

Test system: premature termination codons (PTC)
Settings: genetic disorders with premature termination codons in the coding sequence of a critical protein

SMILES: O=C(O)c1cccc(-c2noc(-c3ccccc3F)n2)c1 [PTC124]
- required protein produced, relative to normal concentrations: 1-5%
